Measurements from patent publication US10829499B2, “Tetracyclic heterocycle compounds useful as HIV integrase inhibitors” (MERCK SHARP & DOHME CORP., priority 2016, dated 2020).
Like-named read-outs stand apart in the source and are kept apart here.

Test system: HIV-1 (NL4-3 strain)
Experiment: Assay for Inhibition of HIV Replication (kinetic assay, MT4-gag-GFP reporter cell line; VIKING)
Format: cell-based
Method: This assay is a kinetic assay that employs a reporter cell line (MT4-gag-GFP) to quantify the number of new cells infected in each round of replication.
MT4-GFP cells (250,000 cells/ml) were bulk-infected with HIV-1 (NL4-3 strain) at low multiplicity of infection (MOI) in RPMI cell culture medium+10% FBS for 24 hours. Cells were then washed once in RPMI cell culture medium+10% FBS and resuspended in RPMI cell culture medium+0% or 10% or 100% normal human serum (NHS). Test compounds were serial-diluted in DMSO on an ECHO® liquid handler. The infected MT4-GFP cells were added to a 384-well poly-D-lysine coated black plate with clear bottom in which the diluted test compounds were placed. The cells were seeded at 8,000 cells per well and the final DMSO concentration was 0.4%. The infected cells (Green GFP cells) were quantified at both 24 and 48 hours post incubation using Acumen eX3. Viral reproductive ratio (R0) was determined using the number of infected cells at 48 hours divided by the number of infected cells at 24 hours. Percent viral growth inhibition was calculated by [1-(R-Rtripledrug),/(RDMSO-Rtripledrug)]*100. Compound potency IP or IC50 was determined by a 4-parameter dose response curve analysis. In vitro potency in the cell-based assay in the absence of normal human serum (NHS) and the presence of 100% NHS.

[1] = Human immunodeficiency virus 1, NL43, MT4-GFP cells infected with HIV-1 NL4-3, 100% normal human serum (NHS), read-out: VIKING IP50 (nM) with 100% NHS
[2] = MT4-GFP cells infected with HIV-1 NL4-3, 0% normal human serum (NHS), read-out: VIKING IP50 (nM) with 0% NHS
[3] = MT4-GFP cells infected with HIV-1 NL4-3, 100% normal human serum (NHS), read-out: VIKING IP50 (nM) with 100% NHS
[4] = Human immunodeficiency virus 1, NL43, MT4-GFP cells infected with HIV-1 NL4-3, 0% normal human serum (NHS), read-out: VIKING IP50 (nM) with 0% NHS

Row | Compound | IC50 [1] | IC50 [2] | IC50 [3] | IC50 [4]
1 | C[C@H]1CN2C(=O)c3c(O)c(=O)c(C(=O)NCc4cccc(Cl)c4F)c4n3C(CC4)C2N1 (stereo partly drawn) [Compound 93] | 49 nM | 1.14 nM | – | –
2 | C[C@H]1CN2C(=O)c3c(O)c(=O)c(C(=O)NCc4cccc(Cl)c4F)c4n3C(CC4)C2N1 (stereo partly drawn) [Compound 94] | – | 0.503 nM | 14.5 nM | –
3 | C[C@H]1CN2C(=O)c3c(O)c(=O)c(C(=O)NCc4ccc(F)cc4F)c4n3C(CC4)C2N1 (stereo partly drawn) [Compound 95] | 124 nM | – | – | 2.59 nM
4 | C[C@H]1CN2C(=O)c3c(O)c(=O)c(C(=O)NCc4ccc(F)cc4F)c4n3C(CC4)C2N1 (stereo partly drawn) [Compound 96] | – | 2.04 nM | 13.8 nM | –
5 | C[C@H]1CN2C(=O)c3c(O)c(=O)c(C(=O)NCc4ccc(F)cc4F)c4n3C(CC4)C2N1 (stereo partly drawn) [Compound 97] | – | 4.3 nM | 48.3 nM | –
6 | C[C@H]1CN2C(=O)c3c(O)c(=O)c(C(=O)NCc4ccc(F)cc4F)c4n3C(CC4)C2N1 (stereo partly drawn) [Compound 98] | – | 1.48 nM | 16 nM | –
7 | C[C@H]1CNC2C3CCc4c(C(=O)NCc5ccc(F)cc5F)c(=O)c(O)c(n43)C(=O)N21 (stereo partly drawn) [Compound 99] | – | – | 19.2 nM | 2.28 nM
8 | C[C@H]1CNC2C3CCc4c(C(=O)NCc5ccc(F)cc5F)c(=O)c(O)c(n43)C(=O)N21 (stereo partly drawn) [Compound 100] | – | 1.94 nM | 56.5 nM | –
9 | C[C@H]1CNC2C3CCc4c(C(=O)NCc5ccc(F)cc5F)c(=O)c(O)c(n43)C(=O)N21 (stereo partly drawn) [Compound 101] | – | 1.99 nM | 23.4 nM | –
10 | C[C@H]1CN2C(=O)c3c(O)c(=O)c(C(=O)NCc4cccc(Cl)c4F)c4n3C(CC4)C2N1C (stereo partly drawn) [Compound 102] | 579 nM | – | – | 1.05 nM
11 | C[C@H]1CN2C(=O)c3c(O)c(=O)c(C(=O)NCc4cccc(Cl)c4F)c4n3C(CC4)C2N1C (stereo partly drawn) [Compound 103] | – | 1.45 nM | 15.4 nM | –
12 | C[C@H]1CN2C(=O)c3c(O)c(=O)c(C(=O)NCc4cccc(Cl)c4F)c4n3C(CC4)C2N1C (stereo partly drawn) [Compound 104] | – | 0.397 nM | 71.4 nM | –
13 | C[C@H]1CN2C(=O)c3c(O)c(=O)c(C(=O)NCc4cccc(Cl)c4F)c4n3C(CC4)C2N1C (stereo partly drawn) [Compound 105] | – | 0.495 nM | 32.6 nM | –
14 | CC(C)N1C2C3CCc4c(C(=O)NCc5cccc(Cl)c5F)c(=O)c(O)c(n43)C(=O)N2C[C@@H]1C (stereo partly drawn) [Compound 106] | 88.9 nM | – | – | 3.68 nM
15 | CCCN1C2C3CCc4c(C(=O)NCc5cccc(Cl)c5F)c(=O)c(O)c(n43)C(=O)N2C[C@@H]1C (stereo partly drawn) [Compound 107] | – | 2.82 nM | 272 nM | –
16 | CCCN1C2C3CCc4c(C(=O)NCc5cccc(Cl)c5F)c(=O)c(O)c(n43)C(=O)N2C[C@@H]1C (stereo partly drawn) [Compound 108] | – | 1.17 nM | 80.1 nM | –
17 | C[C@H]1CN(C)C2C3CCc4c(C(=O)NCc5cccc(Cl)c5F)c(=O)c(O)c(n43)C(=O)N21 (stereo partly drawn) [Compound 109] | – | – | 480 nM | 1.17 nM
18 | C[C@H]1CN(C)C2C3CCc4c(C(=O)NCc5cccc(Cl)c5F)c(=O)c(O)c(n43)C(=O)N21 (stereo partly drawn) [Compound 110] | – | 0.733 nM | 67.8 nM | –
19 | CCN1C[C@H](C)N2C(=O)c3c(O)c(=O)c(C(=O)NCc4cccc(Cl)c4F)c4n3C(CC4)C12 (stereo partly drawn) [Compound 111] | – | – | 260 nM | 1.19 nM
20 | CCN1C[C@H](C)N2C(=O)c3c(O)c(=O)c(C(=O)NCc4cccc(Cl)c4F)c4n3C(CC4)C12 (stereo partly drawn) [Compound 112] | – | 0.806 nM | 40.4 nM | –
21 | CCCN1C[C@H](C)N2C(=O)c3c(O)c(=O)c(C(=O)NCc4cccc(Cl)c4F)c4n3C(CC4)C12 (stereo partly drawn) [Compound 113] | 291 nM | – | – | 3.58 nM
22 | CCCN1C[C@H](C)N2C(=O)c3c(O)c(=O)c(C(=O)NCc4cccc(Cl)c4F)c4n3C(CC4)C12 (stereo partly drawn) [Compound 114] | – | 6.36 nM | 175 nM | –
23 | CC(C)N1C[C@H](C)N2C(=O)c3c(O)c(=O)c(C(=O)NCc4cccc(Cl)c4F)c4n3C(CC4)C12 (stereo partly drawn) [Compound 115] | 113 nM | – | – | 7.4 nM
24 | C[C@H]1CN(S(C)(=O)=O)C2C3CCc4c(C(=O)NCc5cccc(Cl)c5F)c(=O)c(O)c(n43)C(=O)N21 (stereo partly drawn) [Compound 117] | 130 nM | – | – | 3.78 nM
